# Columns and labels:
# ALK5 kinase = target: T1, ALK5 kinase (Homo sapiens, UniProt P36897); test: LanthaScreen Eu Kinase Binding Assay; details: Kinase Tracer 178, Eu-anti-GST Antibody, read-out: IC50 Enzyme
# T1 sequence (P36897 34-503): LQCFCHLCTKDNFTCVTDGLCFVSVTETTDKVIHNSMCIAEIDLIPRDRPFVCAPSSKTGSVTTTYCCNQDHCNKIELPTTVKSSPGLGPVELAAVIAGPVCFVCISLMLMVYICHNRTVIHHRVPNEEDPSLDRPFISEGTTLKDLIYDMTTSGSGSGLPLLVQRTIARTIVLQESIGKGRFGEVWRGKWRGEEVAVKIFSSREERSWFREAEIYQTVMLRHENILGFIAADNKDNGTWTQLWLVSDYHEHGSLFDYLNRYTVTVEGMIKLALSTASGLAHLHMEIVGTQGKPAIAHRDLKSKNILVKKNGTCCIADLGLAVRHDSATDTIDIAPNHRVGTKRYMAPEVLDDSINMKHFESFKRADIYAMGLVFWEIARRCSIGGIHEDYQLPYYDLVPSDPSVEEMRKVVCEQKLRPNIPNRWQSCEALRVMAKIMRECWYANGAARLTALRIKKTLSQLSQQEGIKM
# In short: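 Compound (1% DMSO final) preincubated 30 min at RT with GST-tagged ALK5, then Eu-anti-GST antibody and Kinase Tracer 178 added for 60 min at RT. TR-FRET read at 340 nm excitation; 665/615 nm emission ratio falls as compound binding rises.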
# TGF-β signaling = test: Assay for evaluating cellular inhibition of TGF-β signaling, 4T1 (SBE-luc2P) luciferase reporter; assay type: cell-based; details: Mus musculus, 4T1, 4T1 (SBE-luc2P) transient pool, 0.2% FBS, 2 h pre-treatment, TGF-β1 2 ng/mL 24 h; read-out: IC50 4T1 Cell
# In short: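 4T1 cells transiently carrying SBE-luc2P (6×10^3/well, 0.2% FBS, ~60% confluence) or HEK293 SBE-reporter stable cells (2.5×10^4/well, 0.5% FBS, ~80% confluence) pre-treated with compound for 2 h. TGF-β1 (2 ng/mL) then added for 24 h at 37 °C; luciferase luminescence read from lysates.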
IC50 (ALK5 kinase) [nM],IC50 (TGF-β signaling) [nM],Compound
< 100,> 100,"CN(C)c1nc(-c2ccccc2)c(Oc2ccnc(Nc3ccnc(C(C)(C)O)c3)c2)s1 [A-158, 2-(4-((4-((2-(Dimethylamino)-4-phenylthiazol-5-yl)oxy)pyridin-2-yl)amino)pyridin-2-yl)propan-2-ol]"
< 100,> 100,"O=C(NO)c1ccc(Nc2cc(Oc3sc(C4CC4)nc3-c3ccccc3)ccn2)cc1 [A-139, 4-((4-((2-Cyclopropyl-4-phenylthiazol-5-yl)oxy)pyridin-2-yl)amino)-N-hydroxybenzamide]"
< 100,> 100,"CCc1nc(-c2cccc(C)n2)c(Oc2ccnc(Nc3ccnc(C(=O)O)c3)c2)s1 [A-263, 4-((4-((2-Ethyl-4-(6-methylpyridin-2-yl)thiazol-5-yl)oxy)pyridin-2-yl)amino)picolinic acid]"
< 100,< 100,"CCc1nc(-c2cccc(C)n2)c(Oc2ccnc(Nc3ccc(C(N)=O)cn3)c2)s1 [A-251, 6-((4-((2-Ethyl-4-(6-methylpyridin-2-yl)thiazol-5-yl)oxy)pyridin-2-yl)amino)nicotinamide]"
> 100,> 100,"O=C(O)c1ccc(Nc2cc(Oc3sc(C4CCCCC4)nc3-c3ccccc3)ccn2)nc1 [A-178, 6-((4-((2-cyclohexyl-4-phenylthiazol-5-yl)oxy)pyridin-2-yl)amino)nicotinic acid]"
< 100,< 100,"CCc1nc(-c2cccc(C)n2)c(Oc2ccnc(Nc3cccc(C(=O)NC)c3)c2)s1 [A-259, 3-((4-((2-Ethyl-4-(6-methylpyridin-2-yl)thiazol-5-yl)oxy)pyridin-2-yl)amino)-N-methylbenzamide]"
< 100,> 100,"CCc1nc(-c2ccccc2)c(Oc2ccnc(Nc3cccc(C(C)(C)O)c3)c2)s1 [A-182, 2-(3-((4-((2-Ethyl-4-phenylthiazol-5-yl)oxy)pyridin-2-yl)amino)phenyl)propan-2-ol]"
< 100,< 100,"CNC(=O)c1ccc(Nc2cc(Oc3sc(C(C)C)nc3-c3ccccc3)ccn2)nc1 [A-228, 6-((4-((2-Isopropyl-4-phenylthiazol-5-yl)oxy)pyridin-2-yl)amino)-N-methylnicotinamide]"
< 100,> 100,"NS(=O)(=O)c1cccc(Nc2cc(Oc3sc(C(F)(F)F)nc3-c3ccccc3)ccn2)c1 [A-145, 3-((4-((4-Phenyl-2-(trifluoromethyl)thiazol-5-yl)oxy)pyridin-2-yl)amino)benzenesulfonamide]"
< 100,> 100,"Nc1nc(-c2ccccc2)c(Oc2ccnc(Nc3ccc(S(N)(=O)=O)cc3)c2)s1 [A-4, 4-((4-((2-Amino-4-phenylthiazol-5-yl)oxy)pyridin-2-yl)amino)benzenesulfonamide]"
< 100,< 100,"CCc1nc(-c2cccc(C)n2)c(Oc2ccnc(Nc3ccnc(C(=O)NC)c3)c2)s1 [A-265, 4-((4-((2-Ethyl-4-(6-methylpyridin-2-yl)thiazol-5-yl)oxy)pyridin-2-yl)amino)-N-methylpicolinamide]"
< 100,< 100,"CNc1nc(-c2ccccc2)c(Oc2ccnc(Nc3cccc(S(N)(=O)=O)c3)c2)s1 [A-51, 3-((4-((2-(Methylamino)-4-phenylthiazol-5-yl)oxy)pyridin-2-yl)amino)benzenesulfonamide]"
< 100,< 100,"O=C(O)c1ccc(Nc2cc(Oc3sc(C(F)(F)F)nc3-c3ccccc3)ccn2)nc1 [A-149, 6-((4-((4-Phenyl-2-(trifluoromethyl)thiazol-5-yl)oxy)pyridin-2-yl)amino)nicotinic acid]"
< 100,> 100,"CC(C)c1nc(-c2ccccc2)c(Oc2ccnc(Nc3ccc(S(N)(=O)=O)cc3)c2)s1 [A-221, 4-((4-((2-Isopropyl-4-phenylthiazol-5-yl)oxy)pyridin-2-yl)amino)benzenesulfonamide]"
< 100,< 100,"NC(=O)c1ccc(Nc2cc(Oc3sc(C(F)(F)F)nc3-c3ccccc3)ccn2)nc1 [A-146, 6-((4-((4-Phenyl-2-(trifluoromethyl)thiazol-5-yl)oxy)pyridin-2-yl)amino)nicotinamide]"
< 100,< 100,"CC(C)c1nc(-c2ccccc2)c(Oc2ccnc(Nc3ccc(C(=O)O)cn3)c2)s1 [A-232, 6-((4-((2-Isopropyl-4-phenylthiazol-5-yl)oxy)pyridin-2-yl)amino)nicotinic acid]"

IC50 (ALK5 kinase) [nM],IC50 (TGF-β signaling) [nM],Compound
< 100,> 100,"Cc1nc(-c2ccccc2)c(Oc2ccnc(Nc3cccc(C(=O)O)c3)c2)s1 [A-109, 3-((4-((2-Methyl-4-phenylthiazol-5-yl)oxy)pyridin-2-yl)amino)benzoic acid]"
< 100,< 100,"CCc1nc(-c2cccc(C)n2)c(Oc2ccnc(Nc3cccc(S(N)(=O)=O)c3)c2)s1 [A-250, 3-((4-((2-Ethyl-4-(6-methylpyridin-2-yl)thiazol-5-yl)oxy)pyridin-2-yl)amino)benzenesulfonamide]"
> 100,> 100,"CC(C)c1nc(-c2ccccc2)c(Oc2ccnc(Nc3ccc(C(N)=O)cc3)c2)s1 [A-222, 4-((4-((2-Isopropyl-4-phenylthiazol-5-yl)oxy)pyridin-2-yl)amino)benzamide]"
< 100,> 100,"COC(=O)c1cccc(Nc2cc(Oc3sc(Br)nc3-c3ccccc3)ccn2)c1 [A-170, Methyl 3-((4-((2-bromo-4-phenylthiazol-5-yl)oxy)pyridin-2-yl)amino)benzoate]"
< 100,> 100,"CC(C)(O)c1cc(Nc2cc(Oc3sc(C4CC4)nc3-c3ccccc3)ccn2)ccn1 [A-120, 2-(4-((4-((2-Cyclopropyl-4-phenylthiazol-5-yl)oxy)pyridin-2-yl)amino)pyridin-2-yl)propan-2-ol]"
< 100,< 100,"CNC(=O)c1cccc(Nc2cc(Oc3sc(C)nc3-c3ccccc3)ccn2)c1 [A-69, N-Methyl-3-((4-((2-methyl-4-phenylthiazol-5-yl)oxy)pyridin-2-yl)amino)benzamide]"
> 100,> 100,"NC(=O)c1cccc(Nc2cc(Oc3sc(Br)nc3-c3ccccc3)ccn2)c1 [A-172, 3-((4-((2-Bromo-4-phenylthiazol-5-yl)oxy)pyridin-2-yl)amino)benzamide]"
< 100,> 100,"CN(C)c1nc(-c2ccccc2)c(Oc2ccnc(Nc3cccc(C(C)(C)O)c3)c2)s1 [A-153, 2-(3-((4-((2-(Dimethylamino)-4-phenylthiazol-5-yl)oxy)pyridin-2-yl)amino)phenyl)propan-2-ol]"
< 100,< 100,"Cc1cccc(-c2nc(C)sc2Oc2ccnc(Nc3cccc(C(C)(C)C(=O)O)c3)c2)n1 [A-309, 2-Methyl-2-(3-((4-((2-methyl-4-(6-methylpyridin-2-yl)thiazol-5-yl)oxy)pyridin-2-yl)amino)phenyl)propanoic acid]"
< 100,< 100,"CNC(=O)c1cccc(Nc2cc(Oc3sc(N(C)C)nc3-c3ccccc3)ccn2)n1 [A-161, 6-((4-((2-(Dimethylamino)-4-phenylthiazol-5-yl)oxy)pyridin-2-yl)amino)-N-methylpicolinamide]"
< 100,< 100,"Cc1nc(-c2ccccc2)c(Oc2ccnc(Nc3cccc(NS(=O)(=O)C(F)(F)F)c3)c2)s1 [A-107, 1,1,1-Trifluoro-N-(3-((4-((2-methyl-4-phenylthiazol-5-yl)oxy)pyridin-2-yl)amino)phenyl)methanesulfonamide]"
< 100,> 100,"CC(C)(O)c1ccc(Nc2cc(Oc3sc(N)nc3-c3ccccc3)ccn2)cn1 [A-43, 2-(5-((4-((2-Amino-4-phenylthiazol-5-yl)oxy)pyridin-2-yl)amino)pyridin-2-yl)propan-2-ol]"
< 100,< 100,"CCc1nc(-c2ccccc2)c(Oc2ccnc(Nc3ccc(C(=O)NC)cc3)c2)s1 [A-189, 4-((4-((2-Ethyl-4-phenylthiazol-5-yl)oxy)pyridin-2-yl)amino)-N-methylbenzamide]"
< 100,> 100,"CC(C)(O)c1cccc(Nc2cc(Oc3sc(N)nc3-c3ccccc3)ccn2)c1 [A-41, 2-(3-((4-((2-Amino-4-phenylthiazol-5-yl)oxy)pyridin-2-yl)amino)phenyl)propan-2-ol]"
< 100,> 100,"NS(=O)(=O)c1ccc(Nc2cc(Oc3sc(C4CC4)nc3-c3ccccc3)ccn2)cc1 [A-118, 4-((4-((2-Cyclopropyl-4-phenylthiazol-5-yl)oxy)pyridin-2-yl)amino)benzenesulfonamide]"
< 100,< 100,"Cc1cccc(-c2nc(C)sc2Oc2ccnc(Nc3cccc(S(N)(=O)=O)c3)c2)n1 [A-303, 3-((4-((2-Methyl-4-(6-methylpyridin-2-yl)thiazol-5-yl)oxy)pyridin-2-yl)amino)benzenesulfonamide]"
